Test results from ChEMBL document CHEMBL1140311, “Design and synthesis of new nonsteroidal glucocorticoid modulators through application of an "agreement docking" method” (J Med Chem, 2005).

Assays:
Glucocorticoid receptor [1] = biological target: T1, Glucocorticoid receptor (Homo sapiens, UniProt P04150); test: Antagonist activity for Glucocorticoid receptor in MMTV transactivation assay in human A549 lung epithelial cells at 10 uM; assay type: functional, cell-based
T1 sequence (P04150 whole entry): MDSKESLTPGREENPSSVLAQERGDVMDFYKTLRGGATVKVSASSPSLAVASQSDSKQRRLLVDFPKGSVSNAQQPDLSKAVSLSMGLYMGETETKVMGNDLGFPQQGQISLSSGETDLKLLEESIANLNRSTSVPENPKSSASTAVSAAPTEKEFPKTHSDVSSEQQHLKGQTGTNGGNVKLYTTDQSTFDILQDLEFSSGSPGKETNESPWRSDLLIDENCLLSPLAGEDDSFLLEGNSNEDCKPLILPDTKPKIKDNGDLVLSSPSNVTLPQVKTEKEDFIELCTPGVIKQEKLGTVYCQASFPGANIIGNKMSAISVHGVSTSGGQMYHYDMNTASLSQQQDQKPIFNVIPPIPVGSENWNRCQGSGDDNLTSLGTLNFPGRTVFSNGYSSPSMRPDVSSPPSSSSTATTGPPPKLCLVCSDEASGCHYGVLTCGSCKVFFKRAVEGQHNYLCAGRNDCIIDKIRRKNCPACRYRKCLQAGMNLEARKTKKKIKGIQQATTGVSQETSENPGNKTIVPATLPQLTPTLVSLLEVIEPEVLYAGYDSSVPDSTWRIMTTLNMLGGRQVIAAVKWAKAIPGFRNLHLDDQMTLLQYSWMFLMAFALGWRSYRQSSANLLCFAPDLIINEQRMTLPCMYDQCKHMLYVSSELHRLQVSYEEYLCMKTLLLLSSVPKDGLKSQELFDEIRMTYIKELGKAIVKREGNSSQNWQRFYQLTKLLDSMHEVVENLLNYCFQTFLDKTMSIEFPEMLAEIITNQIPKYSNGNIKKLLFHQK

[2] = biological target: T2, Glucocorticoid receptor (Homo sapiens) (UniProt P04150); test: Glucocorticoid receptor mediated transrepression of NFkB reporter gene in human A549 lung epithelial cells at 10 uM; assay type: functional, cell-based
T2 sequence (whole entry): T1 sequence (P04150 whole entry)

[3] = Binding affinity for glucocorticoid receptor
Glucocorticoid receptor [4] = biological target: T1, Glucocorticoid receptor; test: Glucocorticoid receptor mediated transrepression of NFkB reporter gene in human A549 lung epithelial cells; assay type: functional, cell-based

| SMILES | IC50 (Glucocorticoid receptor [1]) [µM] | Max inhibition [2] [%] | Log IC50 [3] | IC50 (Glucocorticoid receptor [4]) [µM] |
| --- | --- | --- | --- | --- |
| Cc1noc(=O)c2ccc(NC(=O)C(O)(CC3CCc4ccccc43)C(F)(F)F)cc12 (configuration not stated) | 4.79 | 73 | -7.81 |  |
| Cc1noc(=O)c2ccc(NC(=O)C(O)(CC3CCCc4ccccc43)C(F)(F)F)cc12 (stereo in doubt; 9d (D2E2)) [listing 1 of 2 here] | 3.89 |  | -7.15 |  |
| Cc1noc(=O)c2ccc(NC(=O)C(O)(CC3CCCc4ccccc43)C(F)(F)F)cc12 (stereo in doubt; 9d (D2E2)) [listing 2 of 2 here] |  | 23 |  |  |
| Cc1noc(=O)c2ccc(NC(=O)C(O)(CC3CCCc4ccccc43)C(F)(F)F)cc12 (stereo in doubt; 9e (D1E1)) [listing 1 of 2 here] | 0.562 |  | -8.08 |  |
| Cc1noc(=O)c2ccc(NC(=O)C(O)(CC3CCCc4ccccc43)C(F)(F)F)cc12 (stereo in doubt; 9e (D1E1)) [listing 2 of 2 here] |  | 51 |  |  |
| Cc1noc(=O)c2ccc(NC(=O)C(O)(CC3CCCCc4ccccc43)C(F)(F)F)cc12 (stereo in doubt; 15a (D1E2)) [listing 1 of 2 here] | 0.708 |  | -8.57 | 0.145 |
| Cc1noc(=O)c2ccc(NC(=O)C(O)(CC3CCCCc4ccccc43)C(F)(F)F)cc12 (stereo in doubt; 15a (D1E2)) [listing 2 of 2 here] |  | 60 |  |  |
| Cc1noc(=O)c2ccc(NC(=O)C(O)(CC3CCCCc4ccccc43)C(F)(F)F)cc12 (stereo in doubt; 15b (D2E1)) [listing 1 of 2 here] | 1 |  | -7.75 |  |
| Cc1noc(=O)c2ccc(NC(=O)C(O)(CC3CCCCc4ccccc43)C(F)(F)F)cc12 (stereo in doubt; 15b (D2E1)) [listing 2 of 2 here] |  | 24 |  |  |
| C[C@@H]1C[C@H]2[C@@H]3CCC4=CC(=O)C=C[C@]4(C)[C@@]3(F)[C@@H](O)C[C@]2(C)[C@@]1(O)C(=O)CO [DEXAMETHASONE] |  |  | -8.1 |  |
